From ChEMBL document CHEMBL1147989, “Synthesis and structure-activity relationships of 4-hydroxy-4-phenylpiperidines as nociceptin receptor ligands: Part 2” (Bioorg Med Chem Lett, 2007) come the findings set out here.

For orientation: Ki means the dissociation constant of the complex between target and ligand, obtained from inhibition or displacement. What is called inhibition is the drop in the measured response relative to a control, in per cent.

Test [1] has as its target T1, Nociceptin receptor (Homo sapiens, UniProt P41146). The test can be described thus: Displacement of [125I][Tyr14]nociceptin FQ from human NOP receptor expressed in CHO cell membrane. Type of test: cell membranes. On the technique in general: Loss of bound radioactivity is the signal in a displacement assay; it reports binding, not function.
The target of test [2] is Delta-type opioid receptor (Homo sapiens, UniProt P41143). The experiment in a line: Displacement of [3H]diprenorphine from human DOP receptor expressed in CHO cell membrane. Type of test: cell membranes.
Test [3] concerns the target Kappa-type opioid receptor (Homo sapiens, UniProt P41145). The test can be described thus: Displacement of [3H]diprenorphine from human KOP receptor expressed in CHO cell membrane. Type of test: cell membranes.
The target of a further test is Mu-type opioid receptor (Homo sapiens, UniProt P35372). The experiment in a line: Displacement of [3H]diprenorphine from human MOP receptor expressed in CHO cell membrane. Type of test: cell membranes.
In test [4] the target is T1, Nociceptin receptor. The test can be described thus: Agonist activity at human NOP receptor transfected in CHO cells assessed as stimulation of [35S]GTP-gamma-S at 0.1 uM. Type of test: functional, cell-based. For orientation: GTPγS is a poorly hydrolysed GTP analogue; its binding reports G protein activation.
In test [5] the target is T1, Nociceptin receptor. The test can be described thus: Activity at human NOP receptor transfected in CHO cells assessed as inhibition of [35S]GTP-gamma-S at 1 uM. Type of test: functional, cell-based.
Test [6] addresses T1, Nociceptin receptor. The experiment in a line: Agonist activity at human NOP receptor transfected in CHO cells assessed as stimulation of [35S]GTPgammaS at 1 uM. Type of test: functional, cell-based.
Test [7] has as its target T1, Nociceptin receptor. The experiment in a line: Activity at human NOP receptor transfected in CHO cells assessed as inhibition of [35S]GTPgammaS at 10 uM. It counts as functional, cell-based.
The target in test [8] is T1, Nociceptin receptor. The test can be described thus: Agonist activity at human NOP receptor transfected in CHO cells assessed as stimulation of [35S]GTP-gamma-S at 100 uM. Type of test: functional, cell-based.

Structures are written as SMILES.

Sequence of Delta-type opioid receptor (P41143 whole entry): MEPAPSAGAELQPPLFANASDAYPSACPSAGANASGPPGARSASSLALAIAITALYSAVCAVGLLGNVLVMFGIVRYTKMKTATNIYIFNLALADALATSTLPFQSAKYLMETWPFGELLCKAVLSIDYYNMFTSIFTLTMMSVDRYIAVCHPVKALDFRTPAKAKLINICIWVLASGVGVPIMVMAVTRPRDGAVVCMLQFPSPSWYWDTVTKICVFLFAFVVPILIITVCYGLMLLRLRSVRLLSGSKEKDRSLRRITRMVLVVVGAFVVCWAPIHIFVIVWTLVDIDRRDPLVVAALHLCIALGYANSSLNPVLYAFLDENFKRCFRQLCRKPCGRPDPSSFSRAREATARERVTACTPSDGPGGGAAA
Sequence of Kappa-type opioid receptor (P41145 whole entry): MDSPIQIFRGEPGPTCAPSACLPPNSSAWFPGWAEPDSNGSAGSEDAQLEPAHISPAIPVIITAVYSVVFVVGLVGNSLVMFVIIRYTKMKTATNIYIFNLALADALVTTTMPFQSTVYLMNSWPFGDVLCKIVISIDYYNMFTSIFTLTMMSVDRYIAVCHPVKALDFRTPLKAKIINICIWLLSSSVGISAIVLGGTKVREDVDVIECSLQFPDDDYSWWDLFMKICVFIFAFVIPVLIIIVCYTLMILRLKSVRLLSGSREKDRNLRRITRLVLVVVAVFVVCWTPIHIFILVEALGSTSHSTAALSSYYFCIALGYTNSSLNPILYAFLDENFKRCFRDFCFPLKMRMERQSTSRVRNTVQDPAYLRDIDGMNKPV
Sequence of Mu-type opioid receptor (P35372 whole entry): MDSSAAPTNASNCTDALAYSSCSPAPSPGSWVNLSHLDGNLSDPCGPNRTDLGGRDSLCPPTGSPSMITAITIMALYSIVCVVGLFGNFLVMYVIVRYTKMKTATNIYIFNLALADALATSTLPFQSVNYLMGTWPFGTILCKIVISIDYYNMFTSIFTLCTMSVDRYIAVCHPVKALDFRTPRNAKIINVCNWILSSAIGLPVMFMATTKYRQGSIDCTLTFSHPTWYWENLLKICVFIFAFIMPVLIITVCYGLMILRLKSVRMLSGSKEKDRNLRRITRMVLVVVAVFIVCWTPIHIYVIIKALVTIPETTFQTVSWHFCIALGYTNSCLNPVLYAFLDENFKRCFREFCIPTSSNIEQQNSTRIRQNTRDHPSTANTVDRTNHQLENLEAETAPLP
T1 sequence (P41146 whole entry): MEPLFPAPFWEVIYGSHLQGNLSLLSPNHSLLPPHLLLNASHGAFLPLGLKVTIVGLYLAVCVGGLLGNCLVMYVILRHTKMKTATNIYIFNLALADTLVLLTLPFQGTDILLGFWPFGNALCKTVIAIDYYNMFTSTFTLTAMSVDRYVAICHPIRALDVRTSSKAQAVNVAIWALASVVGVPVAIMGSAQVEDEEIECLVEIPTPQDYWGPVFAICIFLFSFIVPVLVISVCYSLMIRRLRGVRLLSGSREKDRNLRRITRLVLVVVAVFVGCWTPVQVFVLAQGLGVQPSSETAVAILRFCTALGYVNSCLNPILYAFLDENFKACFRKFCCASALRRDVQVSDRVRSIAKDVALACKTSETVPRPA

On to `Cc1ccccc1C(c1ccccc1)N1CCC(O)(c2ccccc2CN)CC1` (stereo not given), for which the Ki on Nociceptin receptor [1] was determined as 0.7 nM; in test [2], 2870 nM; in test [3] it was 725 nM; at Mu-type opioid receptor, 28 nM. The Activity at Nociceptin receptor [4] turned out to be 119%.

On to `NCc1ccccc1C1(O)CCN(CC2CCCCCC2)CC1`, for which the Ki came out at 4.6 nM at Nociceptin receptor [1], 99500 nM in test [2], 664 nM in test [3] and 452 nM on Mu-type opioid receptor. For the same compound, the inhibition at Nociceptin receptor [5] came to 67%.

Consider `NCc1ccccc1C1(O)CCN(C(c2ccccc2Br)c2ccccc2Br)CC1`, for which the Ki on Nociceptin receptor [1] was determined as 1.8 nM; in test [2], 3200 nM; in test [3], 278 nM; at Mu-type opioid receptor, 616 nM. For the same compound, the Activity on Nociceptin receptor [6] was 104%.

Regarding `CC1(C)CCC(N2CCC(O)(c3ccccc3CN)CC2)c2ccccc21` (stereo not given), the Ki at Nociceptin receptor [1] worked out at 5.5 nM; in [2], 23400 nM; in test [3] it was 1350 nM; at Mu-type opioid receptor it was 181 nM. Moreover, the inhibition at Nociceptin receptor [7] was found to be 43%.

Take `NCc1ccccc1C1(O)CCN(C(c2ccccc2)c2ccccc2Cl)CC1` (stereo not given): the inhibition constant (Ki) amounted to 0.5 nM on Nociceptin receptor [1], 3700 nM in test [2], 425 nM in [3] and 72 nM at Mu-type opioid receptor. Further, the Activity at Nociceptin receptor [4] came out at 116%.

Regarding `NCc1ccccc1C1(O)CCN(C(c2ccccc2Cl)c2ccccc2Cl)CC1`, the Ki amounted to 0.5 nM at Nociceptin receptor [1], 3000 nM in test [2], 747 nM in test [3] and 249 nM at Mu-type opioid receptor. Moreover, the Activity at Nociceptin receptor [6] amounted to 102%.

With `OC1(C2CCCCC2)CCN(C(c2ccccc2)c2ccccc2)CC1`, the Ki on Nociceptin receptor [1] turned out to be 17 nM; in [2], 8110 nM; in test [3] it was 387 nM; on Mu-type opioid receptor, 407 nM. Besides, the Activity on Nociceptin receptor [8] amounted to 121%.

As for `OC1(c2cccc(F)c2)CCN(C(c2ccccc2)c2ccccc2)CC1`, the inhibition constant (Ki) at Nociceptin receptor [1] worked out at 23 nM; in test [2] it was 5610 nM; in test [3], 1990 nM; on Mu-type opioid receptor it was 705 nM. Further, the Activity on Nociceptin receptor [8] came out at 61%.

For `Cc1ccccc1C1(O)CCN(C(c2ccccc2)c2ccccc2)CC1`, the Ki is 11 nM on Nociceptin receptor [1], 1670 nM in test [2], 818 nM in test [3] and 74 nM at Mu-type opioid receptor. On Nociceptin receptor [8], the Activity was determined as 69%.

`NCc1ccccc1C1(O)CCN(C(c2ccccc2)c2ccccc2Br)CC1` (stereo not given): the Ki was determined as 1.1 nM on Nociceptin receptor [1], 3290 nM in test [2], 279 nM in [3] and 72 nM on Mu-type opioid receptor. In addition, the Activity on Nociceptin receptor [6] was found to be 115%.
